# In patent US12121510B2 (Cedars-Sinai Medical Center, priority 2016, dated 2024):
# Key:
# [1] = system: Caki-1; test: Renal cancer cell growth IC50 (crystal violet); assay type: cell-based, human; details: Example 11
# Text: Exemplary Embodiments are generally performed as follows, unless otherwise noted. Simvastatin is purchased from Ark Pharm, Inc. (Arlington Heights, IL). Cisplatin (CIS) is purchased from MedKoo Biosciences, Inc. (Chapel Hill, NC). Dihydroartemisinin is purchased from TCI America (Portland, OR). All other chemicals and reagents are purchased from standard sources such as Sigma-Aldrich and/or VWR and are of highest quality available. Puromycin dihydrochloride was purchased from Alfa Aesar (Tewksbury, MA). Deionized water ([…]) used for making solutions is obtained from Milli-Q Direct Ultrapure Water System from Millipore (Billerica, MA, USA). All intermediates are characterized by 1H NMR and mass analysis and the purity of compounds are analyzed by HPLC. 1H NMR data are collected on Bruker 400 MHz spectrometers using standard parameters; chemical shifts are reported in ppm (δ) in reference to residual non-deuterated solvent. ESI mass spectroscopy analysis is performed using a Thermo Fisher LTQ Orbitrap Elite system. IC50 is the half maximal inhibitory concentration and determined is determined by crystal violet assay unless otherwise noted.
# (§1) The crystal violet assay is performed as follows, unless otherwise noted. Cell lines are supplemented with RPMI 1640 medium, 10% fetal bovine serum, 1% PenStrep, and placed in a humidified atmosphere containing 5% CO2 at 37° C. 5,000 cells/well renal cancer cells and 10,000 cells/well lymphoma cells are seeded in 96 well plates in 100 microliter medium/per well for 24 h. […] Renal cancer cells are fixed with 3.7% paraformaldehyde for 15 minutes and are stained with Crystal violet solution (0.5% in 25% methanol) for 30 minutes. After rinsing with water cell layers are dried and decolorized with Sorenson citrate with shaking for 20 minutes. Light absorption of the extracted supernatant is read at 595 nm. Lymphoma cell growth was evaluated using MTT and cells are incubated for 4 hours. 100 microliters of isopropanol is added, and the extracted supernatant fraction is read at absorption maximum of 595 nm.
# Standard cell culture conditions typically are RPMI 1640 medium, 10% fetal bovine serum, 1% PenStrep, and are performed in a humidified atmosphere containing 5% CO2 at 37° C. Generally, 5,000 cells/well-10,000 cells/well are seeded in 96 well plates in 100 microliter medium/per well for 24 h, or as described in Example 16, unless otherwise noted. Certain cells require specialized media, growth factors, antibiotics, or culture condition adjustments, as will be apparent to a person of ordinary skill in the art.
# as §1, with “Cell” for “The crystal violet assay is performed as follows, unless otherwise noted. Cell”, “cultured as follows. […]” for “supplemented with RPMI 1640 medium, 10% fetal bovine serum, 1% PenStrep, and placed in a humidified atmosphere containing 5% CO2 at 37° C.”, “is” for “was”
# [2] = system: caspase-3 and-7 activities in Caki-1 cells; test: CaspaseGlo 3/7 luminescent apoptosis assay; assay type: cell-based, human; details: 24 hours after treatment
# Text: Caspase-Glo® 3/7 Assay (Promega) is a homogeneous, luminescent assay that measures caspase-3 and-7 activities that provides a luminogenic caspase-3/7 substrate, which contains the tetrapeptide sequence DEVD, in a reagent optimized for caspase activity, luciferase activity and cell lysis. A single Caspase-Glo 3/7 Reagent in an “add-mix measure” format results in cell lysis, followed by caspase cleavage of the substrate and generation of a “glow-type” luminescent signal, produced by luciferase. Luminescence is proportional to the amount of caspase activity present. Caspase-Glo® 3/7 Reagent is prepared, mixed and the reagent and the 96-well plate containing cells are equilibrated to room temperature. […] The plate is incubated at room temperature for 30 minutes to 3 hours, depending upon the cell culture system (optimal incubation period determined empirically). Luminescence of each sample is measured in a plate-reading luminometer. […]
# B-cell lymphoma cells (Namalwa) are cultured in RPMI 1640, 10% fetal bovine serum, 1% PenStrep, and placed in a humidified atmosphere containing 5% CO2 at 37° C. […] 100 microliters of Caspase-Glo 3/7 assay is added and luminescence is then read. […] 100 microliters of Caspase-Glo 3/7 assay is added and luminescence is then read.
# [3] = system: PARP, Caspase 9 and p53 in Caki-1 cells; test: Western blot of apoptosis related proteins; assay type: cell-based, human
# Text: Results also confirm elevated expression of p53 (a tumor suppressor) in human kidney cancer Caki cells (see panel D in FIG. 9).
# [4] = system: normal mouse kidney and liver; test: Immunohistochemical staining of normal kidney and liver; assay type: in vivo; details: mice harbored with human Burkitt's lymphoma
# Text: (§2) These normal kidney and liver tissues were obtained from mice harbored with human Burkitt's lymphoma.
# [5] = system: Namalwa human lymphoma xenograft tumors; test: Immunohistochemical staining of xenograft tumors; assay type: in vivo; details: Namalwa xenograft tumors of mice
# Text: as §2
# [6] = system: mouse kidney; test: Kidney histopathology (hematoxylin and eosin); assay type: in vivo; details: normal kidney of mice implanted with kidney tumors
structure (smiles),measurement,setting,value
CC1(C)C(/C=C/C2=C(Cl)C(=C/C=C3/N(CCCCCC(=O)[O][Pt]([NH2])([NH2])([OH])([Cl])[Cl])c4ccccc4C3(C)C)/CCC2)=[N+](CCCCS(=O)(=O)[O-])c2ccccc21 [DZ-CIS ester],In vitro growth of Caki-1,[1],inhibited by DZ-CIS
same,"Level of apoptosis, CaspaseGlo 3/7",[2],increased apoptosis
same,"Expression of apoptosis related proteins PARP, Caspase 9 and p53",[3],induces elevation of apoptosis related proteins
same,Apoptosis markers (cleaved caspas-3 and M30) / damage in normal kidney and liver,[4],protects normal kidney and liver from damage by CIS
same,Apoptosis in xenograft tumors (cleaved caspase-3 and M30),[5],increased apoptosis
same,Cell proliferation in xenograft tumors (Ki67),[5],decreased cell proliferation
same,"Kidney damage, histopathology",[6],protects from more severe kidney damage
